Holding throughout (assay type): functional
Assay [1] in a line: Cytotoxicity against Homo sapiens (human) breast cancer cells after 48 hr by SRB assay. Particulars: Cancer cell lines. (In general: Sulforhodamine B stains cellular protein and so reports cell mass.)
The subject of assay [2] is SR. Briefly: Cytotoxicity against Homo sapiens (human) SR cells after 48 hr by SRB assay.
The nature of assay [3]: Cytotoxicity against Homo sapiens (human) prostate cancer cells after 48 hr by SRB assay. Particulars: Cancer cell lines.
A short description of assay [4]: Cytotoxicity against Homo sapiens (human) renal cancer cells after 48 hr by SRB assay. Particulars: Cancer cell lines.
The nature of assay [5]: Cytotoxicity against Homo sapiens (human) ovarian cancer cells after 48 hr by SRB assay. As to conditions: Cancer cell lines.
Assay [6] is described as follows: Cytotoxicity against Homo sapiens (human) CNS cancer cells after 48 hr by SRB assay. As to conditions: Cancer cell lines.
Assay [7] is described as follows: Cytotoxicity against Homo sapiens (human) melanoma cellsafter 48 hr by SRB assay. Particulars: Melanoma cell.
Assay [8] in a line: Cytotoxicity against Homo sapiens (human) colon cancer cells after 48 hr by SRB assay. As to conditions: Cancer cell lines.
A short description of assay [9]: Cytotoxicity against Homo sapiens (human) leukemia cells after 48 hr by SRB assay. Particulars: Leukemia cell.
Assay [10] can be described thus: Cytotoxicity against Homo sapiens (human) non-small cell lung cancer cells after 48 hr by SRB assay. Particulars: Cancer cell lines.
Assay [11] concerns SF-268. As to the kind of experiment: Cytotoxicity against Homo sapiens (human) SF268 cells assessed as cellular growth after 48 hr by Alamar blue assay. On the set-up: concentration or dose not given beside the values.
Assay [12] concerns MCF7. As to the kind of experiment: Cytotoxicity against Homo sapiens (human) MCF7 cells assessed as cellular growth after 48 hr by Alamar blue assay. On the set-up: concentration or dose not given beside the values. For orientation: The colour change of resazurin is a common sign of viable cells or microbes.
Assay [13] relates to NCI-H460. Briefly: Cytotoxicity against Homo sapiens (human) NCI-H460 cells assessed as cellular growth after 48 hr by Alamar blue assay. On the set-up: concentration or dose not given beside the values.

Where only a bound is given, the exact number is not on record here.

What is called GI50 is the concentration that inhibits growth by half. What is called TGI is the concentration at which net growth stops.

For `Cc1nn(-c2ccc(Br)cc2)c(C)c1CC(=O)c1cc(O)ccc1O`, the GI50 in assay [1] came out at 11.4 µM; in assay [2], 910 nM; in assay [3], 12.4 µM; in [4], 12 µM; in assay [5] it was 14.1 µM; in assay [6] it was 11.3 µM. For the same molecule, the GI50 was found to be 13.1 µM in assay [7], 11.2 µM in assay [8], 7.71 µM in assay [9] and 12 µM in assay [10]. The TGI in assay [1] was 36.3 µM; in assay [3], 47.3 µM; in assay [4] it was 36.7 µM; in assay [5] it was 42.4 µM; in assay [6], 29.8 µM; in assay [7], 31.4 µM. Besides, the TGI is 42.1 µM in assay [8], 46.6 µM in assay [9] and 32.9 µM in assay [10]. This molecule also showed an LC50 (concentration giving 50% net cell kill) in assay [1] (pooled result: one value given for 9 cell lines, strains, targets or settings) of 48.8 µM. Also, the Activity in [11], in [12] and in [13] was below 32% throughout.

The values above are taken from ChEMBL document CHEMBL3046588, “Design, synthesis, and in vitro evaluation of cytotoxic activity of new substituted 1,4-benzoquinones and hydroquinones” (2007).
